Measured values from patent publication US20090131331A1 (DSM IP ASSETS B.V., priority 2005, published 2009).
pIC50: −log10 of the molar value.

Assays:
[1] = system: ACE (enzyme obtained from Sigma); experiment: ACE in phosphate buffered saline (PBS) pH 7.4 with a chloride concentration of 260 mM; conditions: 50° C., up to 60 minutes
ACE [2] = experiment: at-line ACE inhibition assay; assay type: biochemical
Procedure: For the at-line ACE inhibition assay 27 μl of a 33.4 mU ml^−1 ACE (enzyme obtained from Sigma) in phosphate buffered saline (PBS) pH 7.4 with a chloride concentration of 260 mM was added and the mixture was allowed to incubate for 5 minutes on a 96 well plate mixer at 700 RPM. After the incubation period 13 μl of a 0.35 mM hippuric acid-histidine leucine (HHL) solution in PBS buffer was added and mixed for 1 minute at 700 RPM. The mixture was allowed to react for 60 minutes at 50° C. in a GC-oven. After the reaction the plate was cooled in melting ice.
The 96 well plate was then analysed on a flash-HPLC-column. Of the reaction mixture of each well 30 μl was injected on a Chromlith Flash RP18e 25×4.6 mm HPLC column (Merck, Darmstadt, Germany) equipped with a 10×4.6 mm RP18e guard column from the same supplier. The isocratic mobile phase consisted of a 0.1% solution of TFA in water/acetonitrile 79/21. […] Hippuric acid (H) and HHL were monitored at 280 nm. The peak heights of H and HHL were measured and the ACE inhibition (ACEI) of each fraction was calculated according to the equation: […]
• DCw Degree of Cleavage by ACE of HHL to H and HL in water • DCa Degree of Cleavage of HHL to H and HL for the analyte The Degree of Cleavage was calculated by expressing the peak height of H as a fraction of the sum of the peak heights of H and HHL.

ACE [3] = target: ACE (Homo sapiens, UniProt P12821); conditions: literature (Nakamura 1995; Aryoshi 1993); read-out: IC50 reported earlier as ACE inhibiting peptides; cited from earlier work
ACE (Homo sapiens, UniProt P12821), sequence (P12821 30-1306, species assumed): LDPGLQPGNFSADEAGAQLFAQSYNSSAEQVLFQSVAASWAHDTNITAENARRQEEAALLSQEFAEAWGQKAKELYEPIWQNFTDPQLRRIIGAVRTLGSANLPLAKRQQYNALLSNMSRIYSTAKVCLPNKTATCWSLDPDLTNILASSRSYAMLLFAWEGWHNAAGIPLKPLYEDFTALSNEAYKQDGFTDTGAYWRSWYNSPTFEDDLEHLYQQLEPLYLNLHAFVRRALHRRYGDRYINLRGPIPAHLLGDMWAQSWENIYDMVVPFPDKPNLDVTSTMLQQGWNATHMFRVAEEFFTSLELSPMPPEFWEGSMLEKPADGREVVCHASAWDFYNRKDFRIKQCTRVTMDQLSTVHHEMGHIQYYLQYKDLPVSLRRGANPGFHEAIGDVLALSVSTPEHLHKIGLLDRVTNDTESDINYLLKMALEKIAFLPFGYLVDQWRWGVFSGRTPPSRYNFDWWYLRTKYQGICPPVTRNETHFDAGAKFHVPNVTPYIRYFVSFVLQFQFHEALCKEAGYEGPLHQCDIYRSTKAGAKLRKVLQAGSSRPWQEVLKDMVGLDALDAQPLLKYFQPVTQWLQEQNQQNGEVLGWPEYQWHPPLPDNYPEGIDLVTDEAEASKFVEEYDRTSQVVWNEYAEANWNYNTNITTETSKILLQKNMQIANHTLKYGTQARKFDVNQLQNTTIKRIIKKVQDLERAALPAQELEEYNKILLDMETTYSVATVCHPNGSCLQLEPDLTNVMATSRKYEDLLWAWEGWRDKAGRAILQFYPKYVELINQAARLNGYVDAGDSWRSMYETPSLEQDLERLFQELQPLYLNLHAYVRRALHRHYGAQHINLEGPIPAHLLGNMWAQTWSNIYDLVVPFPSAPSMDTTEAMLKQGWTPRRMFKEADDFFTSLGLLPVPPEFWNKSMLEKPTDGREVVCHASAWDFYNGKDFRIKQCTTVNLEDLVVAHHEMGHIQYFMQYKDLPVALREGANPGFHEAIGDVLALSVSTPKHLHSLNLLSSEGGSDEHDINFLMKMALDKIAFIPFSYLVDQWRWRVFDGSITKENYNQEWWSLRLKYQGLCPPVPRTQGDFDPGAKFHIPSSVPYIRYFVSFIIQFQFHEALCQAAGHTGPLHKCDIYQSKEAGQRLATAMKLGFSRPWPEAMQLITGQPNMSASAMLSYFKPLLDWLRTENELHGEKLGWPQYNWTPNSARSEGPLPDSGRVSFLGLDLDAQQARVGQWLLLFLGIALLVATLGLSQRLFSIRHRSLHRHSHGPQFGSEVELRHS

ACE [4] = experiment: modified Matsui ACE inhibition assay; assay type: biochemical; conditions: as stated in description text; read-out: IC50 value in the Modified Matsui test
Procedure: To determine the ACE inhibition activity of MAP and ITP, the chemically synthesised tripeptides were assayed according to the method of Matsui et al. (Matsui, T. et al. (1992) Biosci. Biotech. Biochem. 56: 517-518) with some minor modifications.
Each one of the four samples contained 75 μl 3 mM hippuryl histidine leucine (Hip-His-Leu, Sigma) dissolved in a 250 mM borate solution containing 200 mM NaCl, pH 8.3. ACE was obtained from Sigma. The mixtures were incubated at 37° C. and stopped after 30 min by adding 125 μl 0.5 M HCl. […] After incubation for 20 min. at 37° C., 4 ml 4 mM Na2SO3 in 0.2 M NaH2PO4 was added and the light absorbance at 416 nm was measured with UV/Vis spectrophotometer (Shimadzu UV-1601 with a CPS controller, Netherlands).
The amount of ACE inhibition (ACEI) activity was calculated as a percentage of inhibition compared with the conversion rate of ACE in the absence of an inhibitor according to the following formula: […]
Control 1=Absorbance without ACE inhibitory component (=max. ACE activity) [AU]. Control 2=Absorbance without ACE inhibitory component and without ACE (background) [AU]. Sample1=Absorbance in the presence of ACE and the ACE inhibitory component [AU]. Sample 2=Absorbance in the presence of the ACE inhibitory component, but without ACE [AU]. […]

[5] = system: pepsin (Fluka order no. 77161); 8 times USP pancreatin (Sigma order no. P7545); experiment: simulated human gastro-intestinal tract (GIT procedure): pepsin with falling pH, then pancreatin up to pH 7.1; conditions: 37.5° C., up to t=125 min

Substance: Hip-His-Leu
- cleaved bond [1]: Hip-His

Substance: IPP: known ACE inhibiting tripeptide, kappa-casein f 108-110; chemically synthesized internal reference
- pIC50 (ACE [2]): 5.15
- pIC50 (ACE [3]): 5.30
- pIC50 (ACE [4]): 5.70

Substance: LPP: known ACE inhibiting tripeptide, β-casein f151-153 (UniProt P02666 166-168, looked up, fragment)
- pIC50 (ACE [3]): 5.02

Substance: Met-Ala-Pro
- amount per gram powder before and after GIT [5]: 2851.4 μg g^−1 powder before, 3095.8 after GIT
